#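 Briefly, cells in 96-well plates were exposed to five compound concentrations for 48 h, and endpoints were estimated by linear interpolation. At the TGI there is no net growth.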
# Tests used:
# Test in all cases: growth of human tumour cells (NCI), 48 h
# [1] = tested on: 786-0 renal
# [2] = tested on: A498 renal
# [3] = tested on: A549 NSCLC
# [4] = tested on: ACHN renal
# [5] = tested on: CAKI-1 renal
# [6] = tested on: CCRF-CEM leukemia
# [7] = tested on: COLO 205 colon
# [8] = tested on: DLD-1 colon
# [9] = tested on: DMS 114 small cell lung
# [10] = tested on: DMS 273 small cell lung
# [11] = tested on: EKVX NSCLC
# [12] = tested on: HCT-116 colon
# [13] = tested on: HL-60(TB) leukemia
# [14] = tested on: HOP-18 NSCLC
# [15] = tested on: HOP-62 NSCLC
# [16] = tested on: HOP-92 NSCLC
# [17] = tested on: HT29 colon
# [18] = tested on: IGROV1 ovarian
# [19] = tested on: K-562 leukemia
# [20] = tested on: KM12 colon
# [21] = tested on: KM20L2 colon
# [22] = tested on: LXFL 529 NSCLC
# [23] = tested on: M14 melanoma
# [24] = tested on: M19-MEL melanoma
# [25] = tested on: MALME-3M melanoma
# [26] = tested on: MOLT-4 leukemia
# [27] = tested on: NCI-H226 lung
# [28] = tested on: NCI-H23 lung
# [29] = tested on: NCI-H460 lung
# [30] = tested on: NCI-H522 lung
# [31] = tested on: OVCAR-3 ovarian
# [32] = tested on: OVCAR-4 ovarian
# [33] = tested on: OVCAR-5 ovarian
# [34] = tested on: OVCAR-8 ovarian
# [35] = tested on: RXF 393 renal
# [36] = tested on: RXF-631 renal
# [37] = tested on: SF-268 CNS
# [38] = tested on: SF-295 CNS
# [39] = tested on: SF-539 CNS
# [40] = tested on: SK-MEL-2 melanoma
# [41] = tested on: SK-MEL-28 melanoma
# [42] = tested on: SK-MEL-5 melanoma
# [43] = tested on: SK-OV-3 ovarian
# [44] = tested on: SN12C renal
# [45] = tested on: SNB-19 CNS
# [46] = tested on: SNB-75 CNS
# [47] = tested on: SNB-78 CNS
# [48] = tested on: SR leukemia
# [49] = tested on: SW-620 colon
# [50] = tested on: U251 CNS
# [51] = tested on: UACC-257 melanoma
# [52] = tested on: UO-31 renal
# [53] = tested on: HCC-2998 colon
# [54] = tested on: HCT-15 colon
# [55] = tested on: LOX IMVI melanoma
# [56] = tested on: RPMI-8226 leukemia
# [57] = tested on: TK-10 renal
# [58] = tested on: UACC-62 melanoma
# [59] = tested on: XF 498 CNS
structure (smiles),measurement,setting,value
CCOc1ccc2c(c1)[n+]([O-])c(-c1ccc([N+](=O)[O-])cc1)c(N)[n+]2[O-],TGI,[1],> 100 µM
same,TGI,[2],> 100 µM
same,TGI,[3],> 100 µM
same,TGI,[4],> 100 µM
same,TGI,[5],> 100 µM
same,TGI,[6],> 100 µM
same,TGI,[7],> 100 µM
same,TGI,[8],> 100 µM
same,TGI,[9],> 100 µM
same,TGI,[10],> 100 µM
same,TGI,[11],> 100 µM
same,TGI,[12],> 100 µM
same,TGI,[13],> 100 µM
same,TGI,[14],> 100 µM
same,TGI,[15],> 100 µM
same,TGI,[16],> 100 µM
same,TGI,[17],> 100 µM
same,TGI,[18],> 100 µM
same,TGI,[19],> 100 µM
same,TGI,[20],> 100 µM
same,TGI,[21],> 100 µM
same,TGI,[22],> 100 µM
same,TGI,[23],> 100 µM
same,TGI,[24],> 100 µM
same,TGI,[25],> 100 µM
same,TGI,[26],> 100 µM
same,TGI,[27],> 100 µM
same,TGI,[28],> 100 µM
same,TGI,[29],> 100 µM
same,TGI,[30],> 100 µM
same,TGI,[31],> 100 µM
same,TGI,[32],> 100 µM
same,TGI,[33],> 100 µM
same,TGI,[34],> 100 µM
same,TGI,[35],> 100 µM
same,TGI,[36],> 100 µM
same,TGI,[37],> 100 µM
same,TGI,[38],> 100 µM
same,TGI,[39],> 100 µM
same,TGI,[40],> 100 µM
same,TGI,[41],> 100 µM
same,TGI,[42],> 100 µM
same,TGI,[43],> 100 µM
same,TGI,[44],> 100 µM
same,TGI,[45],> 100 µM
same,TGI,[46],> 100 µM
same,TGI,[47],> 100 µM
same,TGI,[48],> 100 µM
same,TGI,[49],> 100 µM
same,TGI,[50],> 100 µM
same,TGI,[51],> 100 µM
same,TGI,[52],> 100 µM
CC(C(=O)c1ccc(O)cc1)C1(O)C(=O)Nc2c(Cl)cc(Cl)cc21 (stereo unspecified),TGI,[1],> 100 µM
same,TGI,[2],> 85.3 µM
same,TGI,[3],> 100 µM
same,TGI,[4],28.3 µM
same,TGI,[5],> 100 µM
same,TGI,[6],74.7 µM
same,TGI,[7],> 100 µM
same,TGI,[8],> 100 µM
same,TGI,[9],24.2 µM
same,TGI,[10],> 100 µM
same,TGI,[11],> 100 µM
same,TGI,[53],> 100 µM
same,TGI,[12],> 100 µM
same,TGI,[54],> 100 µM
same,TGI,[13],50.2 µM
same,TGI,[15],> 100 µM
same,TGI,[16],> 100 µM
same,TGI,[17],> 100 µM
same,TGI,[18],> 100 µM
same,TGI,[19],32.6 µM
same,TGI,[20],> 100 µM
same,TGI,[21],> 100 µM
same,TGI,[55],> 67.8 µM
same,TGI,[22],> 93.7 µM
same,TGI,[23],> 61.2 µM
same,TGI,[24],57.6 µM
same,TGI,[25],> 100 µM
same,TGI,[26],> 100 µM
same,TGI,[27],> 100 µM
same,TGI,[28],> 100 µM
same,TGI,[29],> 100 µM
same,TGI,[30],57.8 µM
same,TGI,[31],> 84.3 µM
same,TGI,[32],50.5 µM
same,TGI,[33],> 100 µM
same,TGI,[34],> 100 µM
same,TGI,[56],71.5 µM
same,TGI,[35],68.8 µM
same,TGI,[36],> 100 µM
same,TGI,[37],> 100 µM
same,TGI,[38],> 100 µM
same,TGI,[39],> 100 µM
same,TGI,[40],> 100 µM
same,TGI,[41],78.1 µM
same,TGI,[42],31.4 µM
same,TGI,[43],> 100 µM
same,TGI,[44],> 100 µM
same,TGI,[45],> 100 µM
same,TGI,[46],> 100 µM
same,TGI,[47],> 85.5 µM
same,TGI,[49],> 100 µM
same,TGI,[57],> 100 µM
same,TGI,[50],> 100 µM
same,TGI,[51],33.3 µM
same,TGI,[58],21.7 µM
same,TGI,[52],> 100 µM
same,TGI,[59],47.8 µM
FC(F)(F)c1nc2c(ccc3[nH]c4c(-c5ccccc5)nccc4c32)[nH]1,TGI,[1],> 100 µM
same,TGI,[2],> 100 µM
same,TGI,[3],> 100 µM
same,TGI,[4],> 100 µM
same,TGI,[5],> 100 µM
same,TGI,[6],> 69.1 µM
same,TGI,[7],> 100 µM
same,TGI,[8],> 100 µM
same,TGI,[9],> 61 µM
same,TGI,[11],> 100 µM
same,TGI,[53],> 100 µM
same,TGI,[12],> 100 µM
same,TGI,[54],> 100 µM
same,TGI,[13],> 100 µM
same,TGI,[14],> 100 µM
same,TGI,[15],> 100 µM
same,TGI,[16],> 100 µM
same,TGI,[17],> 100 µM
same,TGI,[18],> 100 µM
same,TGI,[19],> 100 µM
same,TGI,[20],> 100 µM
same,TGI,[21],> 100 µM
same,TGI,[55],> 75.9 µM
same,TGI,[22],> 100 µM
same,TGI,[23],> 100 µM
same,TGI,[24],> 100 µM
same,TGI,[25],> 100 µM
same,TGI,[26],> 100 µM
same,TGI,[27],> 100 µM
same,TGI,[28],> 100 µM
same,TGI,[29],> 100 µM
same,TGI,[30],> 100 µM
same,TGI,[31],> 100 µM
same,TGI,[32],> 100 µM
same,TGI,[33],> 100 µM
same,TGI,[34],> 100 µM
same,TGI,[56],> 64.7 µM
same,TGI,[35],> 100 µM
same,TGI,[36],> 100 µM
same,TGI,[37],> 100 µM
same,TGI,[38],> 100 µM
same,TGI,[39],> 100 µM
same,TGI,[40],> 100 µM
same,TGI,[41],> 100 µM
same,TGI,[42],> 100 µM
same,TGI,[43],> 100 µM
same,TGI,[44],> 100 µM
same,TGI,[45],> 100 µM
same,TGI,[46],> 100 µM
same,TGI,[47],> 100 µM
same,TGI,[48],40.7 µM
same,TGI,[49],> 100 µM
same,TGI,[57],> 100 µM
same,TGI,[50],> 100 µM
same,TGI,[51],> 100 µM
same,TGI,[58],> 100 µM
same,TGI,[52],> 100 µM
same,TGI,[59],> 100 µM
COC(=O)CCC(=O)Nc1cc(C)ccc1C,TGI,[1],> 100 µM
same,TGI,[2],> 100 µM
same,TGI,[3],> 100 µM
same,TGI,[4],> 100 µM
same,TGI,[5],> 100 µM
same,TGI,[6],> 100 µM
same,TGI,[7],> 100 µM
same,TGI,[8],> 100 µM
same,TGI,[9],> 100 µM
same,TGI,[10],> 100 µM
same,TGI,[11],> 100 µM
same,TGI,[53],> 100 µM
same,TGI,[12],> 100 µM
same,TGI,[13],> 100 µM
same,TGI,[14],> 100 µM
same,TGI,[15],> 100 µM
same,TGI,[16],> 100 µM
same,TGI,[17],> 100 µM
same,TGI,[18],> 100 µM
same,TGI,[19],> 100 µM
same,TGI,[20],> 100 µM
same,TGI,[55],> 100 µM
same,TGI,[22],> 100 µM
same,TGI,[23],> 100 µM
same,TGI,[24],> 100 µM
same,TGI,[25],> 100 µM
same,TGI,[26],> 100 µM
same,TGI,[27],> 100 µM
same,TGI,[28],> 100 µM
same,TGI,[29],> 100 µM
same,TGI,[30],> 100 µM
same,TGI,[31],> 100 µM
same,TGI,[32],> 100 µM
same,TGI,[34],> 100 µM
same,TGI,[56],> 100 µM
same,TGI,[35],> 100 µM
same,TGI,[36],> 100 µM
same,TGI,[38],> 100 µM
same,TGI,[39],> 100 µM
same,TGI,[40],> 100 µM
same,TGI,[41],> 100 µM
same,TGI,[42],> 100 µM
same,TGI,[43],> 100 µM
same,TGI,[44],> 100 µM
same,TGI,[45],> 100 µM
same,TGI,[46],> 100 µM
same,TGI,[47],> 100 µM
same,TGI,[49],> 100 µM
same,TGI,[57],> 100 µM
same,TGI,[50],> 100 µM
same,TGI,[51],> 100 µM
same,TGI,[58],> 100 µM
same,TGI,[52],> 100 µM
same,TGI,[59],> 100 µM

# From PubChem BioAssay (NCI)
